Source: paper PMC10918830, “Biosynthesis of Cytidine Diphosphate-6-D-Glucitol for the Capsular Polysaccharides of Campylobacter jejuni” (Biochemistry, 2024)

What was measured:
[1] = target: T1, NAD(P)-dependent oxidoreductase HS5.17 (CDP-6-D-glucitol synthase) (Campylobacter jejuni, UniProt A0A0U3AP28); assay: X-ray crystal structure, […] Å; format: binding; settings: tagged enzyme; crystallized with NADP(H), which was not observed; pH 8.0
T1 construct: full-length, N-terminal His6 tag (pET-28a), E. coli expression; tag removed by TEV for the 8V4G crystals, tag kept for 8V4H; dimer

[2] = target: T1, NAD(P)-dependent oxidoreductase HS5.17 (CDP-6-D-glucitol synthase); assay: X-ray crystal structure, […] Å; format: binding; settings: tag-free enzyme; ternary complex with NADP(H); pH 9.0
[3] = target: the molecule itself; assay: crystal structure; tag-free enzyme crystallized with 5 mM CDP and 5 mM NADP(H), PEG 8000, hexyleneglycol, 100 mM CHES pH 9.0; 2.0 Å; dimer in the asymmetric unit
[4] = target: the molecule itself; assay: crystal structure; tagged enzyme crystallized with 5 mM CDP-6-D-glucitol and 5 mM NADP(H), PEG 8000, 200 mM LiCl, 100 mM HEPPS pH 8.0; 2.2 Å; dimer in the asymmetric unit

**Q.** For `Nc1ccn([C@@H]2O[C@H](COP(=O)(O)OP(=O)(O)OC[C@@H](O)[C@@H](O)[C@H](O)[C@@H](O)CO)[C@@H](O)[C@H]2O)c(=O)n1` [compound 3, CDP-6-D-glucitol], which “X-ray crystal structure, 2.2 Å” value [1] is on record?
**A.** Its value is “The electron density was unambiguous for the CDP-6-D-glucitol ligands in both subunits”.

**Q.** `Nc1ccn([C@@H]2O[C@H](COP(=O)(O)OP(=O)(O)O)[C@@H](O)[C@H]2O)c(=O)n1` [CDP] was tested. Which “X-ray crystal structure, 2.0 Å” value [2] did it give?
**A.** Its value is “The first structure determined of the oxidoreductase was that in complex with NADP(H) and CDP”.

B1: NAD(P)-dependent oxidoreductase (HS5.17) from C. jejuni serotype HS:5, tag-free (enzyme, Campylobacter jejuni serotype HS:5)
chain: MNEILKKRLKLLKNNFGTHINKIANKKILITGANGYIGSILTLILHGNAKLYCLVRNKDKMIDRFQEICGDIDKIDIYEDLYKIQDKIDIVIHCAAPTQSDFFIENPIDTVDIIYTNTKNILDFSKKNNVEKIIFLSTMEIYGDVIGDNIVEDDIGKFSVTNIRNSYPLAKQISEFMVHSYSKKYSLSTAIVRLTQAIGPTAQINDNRVYMDFIRSAIKKSQITLFTKGETKREYIDVFDVATAIIFVMCEKKMFEIYNISNPNIFISIYDLAKTISAKLNVQVVFDLQRDTSQYLPSFSRRLNSKKIYQLGWTPLFDLNQSLDDMIKYIKEVNE
notes: putative NAD(P)-oxidoreductase HS5.17 of Campylobacter jejuni serotype HS:5 (ATCC 43433), UniProt A0A0U3AP28; gene synthesized and codon-optimized, in pET-28a(+) between NdeI and XhoI; electron density seen from Met 1 to Asn 334; His 0 left over from the purification tag; Crystallized with CDP and NADP(H) (PDB 8V4G); also called CDP-6-D-glucitol synthase; nucleotide sugar reductase; source: E. …
**Q.** How did the “stoichiometry N” value [3] turn out when B1 was run?
**A.** Its value is 2.

B2: NAD(P)-dependent oxidoreductase (HS5.17) from C. jejuni serotype HS:5, N-terminally histidine-tagged (enzyme, Campylobacter jejuni serotype HS:5)
chain: B1 chain
notes: putative NAD(P)-oxidoreductase HS5.17 of Campylobacter jejuni serotype HS:5 (ATCC 43433), UniProt A0A0U3AP28; gene synthesized and codon-optimized, in pET-28a(+) between NdeI and XhoI; electron density continuous from Met 1 to Asn 334, tag seen from Glu (-7) to Met 1 in Subunit B; Crystallized with CDP-6-D-glucitol (PDB 8V4H); also called CDP-6-D-glucitol synthase; nucleotide sugar reductase; …
**Q.** Which “stoichiometry N” value [4] does the source give for B2 here?
**A.** Its value is 2.
